“Also recorded” adds a separate entry of the source.
Columns and labels:
Cytomegalovirus [1] = assay: Antiviral activity against murine cytomegalovirus; format: cell-based, murine virus; details: Table 6, murine viruses
virus = assay: Direct virucidal activity; details: n-docosanol suspension
Description: (§1) The collective implications of the results of the studies are that the compound appears to interfere with one or more of the common pathways of viral entry into the cell and migration to the nucleus of infected target cells.

Friend Virus = assay: Replication of Friend Virus in vitro in primary embryo fibroblast cultures; format: cell-based, murine
viruses = details: U.S. Pat. No. 4,874,794; cited from earlier work
HSV [2] = assay: Inhibition of HSV replication, Tetronic versus Pluronic suspensions; format: cell-based
Vero cells = assay: Metabolism of n-[14C]-docosanol in Vero cells (TLC); details: sodium azide and 2-deoxyglucose
[3] = tested on: Herpes simplex virus type 1; assay: Inhibition of HSV type 1 infectivity in simian and human cell lines; format: cell-based, HSV-1
[4] = tested on: recurrent herpes genitalis; assay: Study B: trial in female patients with recurrent herpes genitalis; format: in vivo, human; details: all patients
Description: Two clinical efficacy studies have been completed. Study A was a randomized, double-blind, placebo-controlled Phase 2 study in 63 patients (male and female) with recurrent herpes labialis. All of the 31 n-docosanol 10% cream-treated patients in the herpes labialis study, Study A, completed their treatment; 2 of those 31 patients reported a burning or stinging sensation after application of the cream. […] Study B was a randomized, double-blind, placebo-controlled trial in 44 female patients with recurrent herpes genitalis.
In the first clinical study, sixty female patients with recurrent herpes genitalis entered the study while symptom-free and not in a prodromal stage. […]
Three pain analyses were conducted, based on patients' self-assessment of pain: time to sustained "no pain"; time to first "no pain"; and time to first reduction of pain. Time to sustained "no pain" was measured from the time of first pain at application to the time when 1 ) pain was scored as "no pain" for a minimum of 2 consecutive recordings; and 2) during the remainder of the episode, additional pain recordings were no more frequent and severe than 2 separated episodes of 2 consecutive recordings of "mild" pain. […] Time to first reduction in pain was measured from the time of first pain at application to the first time when a decrease in pain level was noted, relative to the previous assessment. […]

wild-type HSV-2 = assay: Plaque inhibition, wild-type HSV-2 in Vero cells; format: cell-based; details: FIG. 7, Panel A
HSV-2 = format: cell-based
[5] = tested on: Respiratory Syncytial Virus; assay: Antiviral activity against respiratory syncytial virus; format: cell-based; details: Table 6, human viruses
HSV-1 = assay: Inhibition of HSV-1-induced cutaneous lesions (vesicles) in hairless guinea pigs; format: in vivo; details: continued treatment
Description: Burroughs Wellcome Co., Research Triangle Park, N.C.; the current agent of choice for treatment of HSV infections which inhibits activity of viral DNA polymerase) in inhibiting HSV-1-induced cutaneous lesions in hairless guinea pigs. […] To confirm in an experimental animal model the efficacy of n-docosanol cream on HSV-induced lesions, and to compare its activity to that of […], hairless guinea pigs were inoculated with 1×10^6 PFU of HSV-1, and then treated with either n-docosanol-containing or control cream, or […] ointment. The n-docosanol creams were constructed as described. The control cream was constructed in a similar manner except stearic acid was substituted for n-docosanol. Treatment was started either 2 or 48 hours after virus inoculation. The sites were evaluated for vesicle formation, defined as a pus-filled blister, at the indicated time points.

HSV [6] = assay: Viral migration to the nucleus (HSV antigens by ELISA, ICP-4 by immunofluorescence); format: cell-based
Description: as §1
Thus, the amounts of both HSV core and envelope protein antigens detectable by ELISA, as well as the numbers of infected cells expressing the intranuclear HSV-specific immediate-early protein, ICP-4, by immunofluorescence, are reduced by more than 80%. Finally, the replication of infectious virions as measured in secondary plaque assay cultures is markedly diminished by 99% or more in n-docosanol-treated cells.

prostate gland = details: oral, U.S. Pat. No. 4,186,211; cited from earlier work
Cytomegalovirus [7] = assay: Antiviral activity against human cytomegalovirus; format: cell-based, human virus; details: Table 6, human viruses
LP-BM5 Virus = assay: Antiviral activity against LP-BM5 virus; format: cell-based; details: Table 6, murine viruses

CCCCCCCCCCCCCCCCCCCCCCO [n-docosanol]
susceptibility to antiviral activity: Cytomegalovirus (Cytomegalovirus [1]): susceptible
direct virucidal activity (virus): no direct virucidal activity
susceptibility to antiviral activity: Friend Leukemia Virus (Friend Virus; Table 6, murine viruses): susceptible
activity against replication of Friend Virus in vitro (Friend Virus; primary embryo fibroblast cultures): very potent activity
antiviral properties (viruses): favorable
ED50 in Pluronic relative to Tetronic (HSV [2]; suspended in Pluronic F-68): approximately 3 times
EC50 (HSV [2]; suspended in Tetronic 908, read-out: ED50 for inhibition of HSV replication): 5 to 10 mM
reduction of metabolic conversion into polar metabolites by energy poisons (Vero cells): 80%
susceptibility to antiviral activity: Herpes Simplex - 1 ([3]; Table 6): susceptible
inhibitory activity in vitro ([3]; suspension in Pluronic F-68): excellent inhibitory activity
average healing time based on patient ratings ([4]; 10% cream, placebo 4.5): 5.6 days
difference in mean time to healing versus placebo ([4]; p=0.2703): no statistically significant difference
inhibition of plaque formation (wild-type HSV-2): inhibit plaque formation by wild type HSV-2 equally
internalization of HSV complete by 20 minutes (HSV-2; after shift to 37° C.): less than 40%
time to completion of internalization (HSV-2; after shift to 37° C.): more than 1 hour
persistence of bound HSV virions on the cell surface (HSV-2; in the presence of n-docosanol): remain on the cell surface for a prolonged time period
susceptibility to antiviral activity: Respiratory Syncytial Virus [5]: susceptible
vesicle number at the 72 hour time point (HSV-1): many fewer vesicles
viral migration to the cell nucleus (HSV [6]): significantly inhibited; also recorded: substantially blocked
reduction of HSV core protein antigen (HSV [6]; ELISA): more than 80%
reduction of HSV envelope protein antigen (HSV [6]; ELISA): more than 80%
reduction of number of infected cells expressing ICP-4 (HSV [6]; immunofluorescence): more than 80%
treatment of enlargement of the prostate gland (prostate gland): therapeutically effective
susceptibility to antiviral activity: Cytomegalovirus (Cytomegalovirus [7]): susceptible
susceptibility to antiviral activity: LP-BM5 Virus (LP-BM5 Virus): susceptible
